Legend:
STAT1-pSer727 = assay: Anti-STAT1-pSer727 immunoprecipitation with parallel reaction monitoring mass spectrometry; type: cell-based, human; conditions: versus IFN-γ (plus DMSO) alone
Experimental: FIGS. 3A-3F show RSK1 is activated through JAK signaling and its inhibition suppresses STAT1 phosphorylation at Ser727 in human primary macrophages in response to IFN-γ. (FIG. 3A) PBMC-derived macrophages were pre-treated with DMSO or 10 μM a pan-JAK inhibitor, pyridone-6, for two hours and then stimulated with IFN-γ for indicated time under serum starvation. Cell lysates were subjected to immunoprecipitation with normal IgG or anti-RSK1 followed by immunoblot analysis using the indicated antibodies. WCL, whole cell lysate. N=3 donors. […] (FIG. 3D) Densitometric based quantification (ImageJ Software) of STAT1-pSer727 in panel (FIG. 3C) plus three additional donors. […] (FIG. 3F) Quantification of PRM ions (MS/MS ions) of the indicated STAT1 peptide harboring a phosphorylation at Ser727 (and oxidized methionine, m), generated from the digest of panel […].
Anti-STAT1-pSer727 IPs—The STAT1 peptide with phosphorylation at Ser727 was detected on the Orbitrap Fusion Lumos. […]
Anti-STAT1-pSer727 IPs—The three most abundant fragment ions of the target peptide (LQTTDNLLPmsPEEFDEVSR (SEQ ID NO: 5)-m10-oxidation, s11-phosphorylation, 806.3575 m/z, z=3) as annotated by SEQUEST (PD2.1) were used for quantification: y12^2+, 759.79455 m/z; c12^+, 1424.64911 m/z; b8^+, 899.48327 m/z. AUC of each fragment was calculated using the Skyline software (https://skyline.gs.washington.edu). […]

[1] = tested on: STAT1 phosphorylation (Ser727, Tyr701); assay: Immunoblot of STAT1 phosphorylation in IFN-γ-stimulated PBMC-derived macrophages; type: cell-based, human; conditions: pre-treatment two hours, 60 minutes of IFN-γ stimulation, vs DMSO
Experimental: FIGS. 3A-3F show RSK1 is activated through JAK signaling and its inhibition suppresses STAT1 phosphorylation at Ser727 in human primary macrophages in response to IFN-γ. (FIG. 3A) PBMC-derived macrophages were pre-treated with DMSO or 10 μM a pan-JAK inhibitor, pyridone-6, for two hours and then stimulated with IFN-γ for indicated time under serum starvation. Cell lysates were subjected to immunoprecipitation with normal IgG or anti-RSK1 followed by immunoblot analysis using the indicated antibodies. WCL, whole cell lysate. N=3 donors. (FIG. 3B) Immunoblots of cell lysates from macrophages that were transfected with control siRNA or RSK1 siRNA followed by stimulation with IFN-γ for indicated time under serum starvation. N=2 donors. (FIG. 3C) Immunoblots of cell lysates from macrophages that were pre-treated with DMSO or BI-D1870 for two hours and subsequently left unstimulated or stimulated with IFN-γ for 1 hour under serum starvation. (FIG. 3D) Densitometric based quantification (ImageJ Software) of STAT1-pSer727 in panel (FIG. 3C) plus three additional donors. The phosphorylation levels in cells pretreated with DMSO and stimulated were defined as 1.0. Data are means±SE. N=6 donors. **P<0.01 indicate significance for phosphorylation levels compared to control (treatment with DMSO and IFN-γ) by Dunnett's comparison test. (FIG. 3E) Macrophages were treated with DMSO or BI-d1870 for two hours followed by IFN-γ stimulation under serum starvation. Cell lysates were subjected to immunoprecipitation with normal IgG or anti-STAT1-pSer727 followed by SYPRO ruby stain or immunoblot analysis with the indicated antibodies. Immunoprecipitants in the gel (red square) were in-gel digested for parallel reaction monitoring (PRM) mass spectrometry. (FIG. 3F) Quantification of PRM ions (MS/MS ions) of the indicated STAT1 peptide harboring a phosphorylation at Ser727 (and oxidized methionine, m), generated from the digest of panel […].
Cell culture of human PBMC-derived primary macrophages. […]

## CC(C)CCN1c2nc(Nc3cc(F)c(O)c(F)c3)ncc2N(C)C(=O)C1C (stereo not shown) [BI-D1870]
STAT1-pSer727
  STAT1-pSer727 recovered post-immunoprecipitation: less
  pSer727 site-specific signal, PRM of three EThcD fragment ions: decrease in signal
[1]
  phospho-STAT1-Ser727 signal: attenuated signal
  phospho-STAT-Tyr701 signal: no change

From US20210123061A1, “METHODS AND COMPOSITIONS FOR TREATING INFLAMMATORY DISEASE OR DISORDER” (THE BRIGHAM AND WOMEN'S HOSPITAL, INC., priority 2018, published 2021)
